One compound from ChEMBL document CHEMBL3870328, “Synthesis of novel Ral inhibitors: An in vitro and in vivo study” (Bioorg Med Chem Lett, 2016) can be followed below.

Series [1] in a line: Drug metabolism in mouse xenografted with human NCI-H2122 cells assessed as 6-amino-4-(2,5-dihydroxyphenyl)-3-(naphthalen-2-yl)-1,4-dihydropyrano[2,3-c]pyrazole-5-carbonitrile metabolite formation in heart at 50 mg/kg, ip after 3 hrs by LC-MS/MS analysis. Format: ADME, organism-based. The settings on record: in vivo, BLD = below limit of detection.
The nature of series [2]: Drug metabolism in mouse xenografted with human NCI-H2122 cells assessed as M3 metabolite formation in plasma at 50 mg/kg, ip after 3 hrs by LC-MS/MS analysis. The settings on record: in vivo. Format: ADME, organism-based. For orientation: Xenograft models place foreign cells or tissue in a host animal.
Series [3] can be described thus: Drug metabolism in CD1 mouse liver microsomes assessed as CYP450-mediated mono-oxidation by measuring M3 metabolite formation at 16.7 uM after 10 mins in presence of NADPH by LC-MS/MS analysis. Format: ADME.
Series [4] in a line: Drug metabolism in mouse xenografted with human NCI-H2122 cells assessed as M4 metabolite formation in plasma at 50 mg/kg, ip after 3 hrs by LC-MS/MS analysis. It counts as ADME, organism-based. The settings on record: in vivo.
The nature of series [5]: Drug metabolism in mouse xenografted with human NCI-H2122 cells assessed as M5 metabolite formation in liver at 50 mg/kg, ip after 3 hrs by LC-MS/MS analysis. Format: ADME, organism-based. The settings on record: in vivo.
A short description of series [6]: Drug metabolism in mouse xenografted with human NCI-H2122 cells assessed as M3 metabolite formation in lungs at 50 mg/kg, ip after 3 hrs by LC-MS/MS analysis. The settings on record: in vivo. Format: ADME, organism-based, Lung.
The nature of series [7]: Drug metabolism in CD1 mouse liver microsomes assessed as CYP450-mediated mono-oxidation by measuring M5 metabolite formation at 16.7 uM after 10 mins in presence of NADPH by LC-MS/MS analysis. It counts as ADME. (In general: Microsomes from liver hold many membrane-bound enzymes, among them those of drug oxidation.)
Series [8] in a line: Drug metabolism in mouse xenografted with human NCI-H2122 cells assessed as M1 metabolite formation in kidney at 50 mg/kg, ip after 3 hrs by LC-MS/MS analysis. It counts as ADME, organism-based. The settings on record: in vivo.
Series [9] in a line: Drug metabolism in mouse xenografted with human NCI-H2122 cells assessed as 6-amino-4-(2,5-dihydroxyphenyl)-3-(naphthalen-2-yl)-1,4-dihydropyrano[2,3-c]pyrazole-5-carbonitrile metabolite formation in kidney at 50 mg/kg, ip after 3 hrs by LC-MS/MS analysis. Format: ADME, organism-based. The settings on record: in vivo.

As to `COc1ccc(OC)c(C2C(C#N)=C(N)Oc3[nH]nc(-c4ccc5ccccc5c4)c32)c1` (centres undefined), the Drug metabolism result in series [1] was “Bld”; in series [2], 14.2 ng/mL; in [3] it was “Metabolite_Detected”; in series [4], 37.8 ng/mL; in series [5], 72.6 ng/g; in series [6], 2 ng/g. Besides, the Drug metabolism result is “Metabolite_Detected” in series [7], 135.2 ng/g in series [8] and 3.7 ng/g in [9].
